Results on three molecules are retold here after article PMC2580763, “Product inhibition of secreted phospholipase A2 may explain lysophosphatidylcholines' unexpected therapeutic properties” (Journal of Inflammation (London, England), 2008).

A word on the Km: it is the substrate concentration at which the rate is half of its maximum. By Ki is commonly meant the equilibrium dissociation constant of an inhibitor or competing ligand from its target.

The test system of one assay is group IA sPLA2. The assay can be described thus: purified group IA sPLA2 enzyme activity in vitro with added lysoPC (10-pyrene substrate). The following applies: for Km / Vmax: 15 nM group IA sPLA2; for type of inhibition of group IA sPLA2: lower range of substrate concentrations, added lysoPCs. It counts as biochemical, Naja mossambica. The procedure:
(§1) Blood was obtained from the trunk of 32 female Sprague Dawley rats (200–250 g) after decapitation. Blood samples were treated with citrate-phosphate-dextrose anticoagulant (1:10, Sigma), and plasma prepared by centrifugation after which samples were frozen at -80° until used. For 16 of these animals, plasma samples were pooled from 4–6 rats for ex vivo enzyme assays. The other 16 rats received lysoPC treatments (see below). The Institutional Animal Care and Use Committee of Drexel University College of Medicine approved all specific procedures of this study. Purified group IA secreted phospholipase A2 from the venom of the Mozambique spitting cobra (Naja mossambica) was obtained from Sigma (St. Louis, MO).
(§2) Enzyme assays were conducted as in previous studies using a Victor 3 fluorescent reader (Perkin Elmer, Waltham, MA). The substrate was 1-palmitoyl-2-pyrenedecanoyl phosphatidylcholine ("10-pyrene"), Caymen Chemical, Ann Arbor MI) a substrate for all calcium dependent PLA2s with the exception of cPLA2 and PAF-AH (LP-PLA2). Substrate solutions were prepared in reaction buffer consisting of 50 mM tris (pH = 7.4), 0.1 M NaCl, 2 mM CaCl2, 0.25% fatty acid-free albumin. The substrate forms phospholipids vesicles in this solution [37], and upon hydrolysis, releases fluorescent 10-pyrenyldecanoic acid (PDA). Plasma samples were 10% final and mixed with lysoPCs by gentle shaking for 100 sec, or they were derived from lysoPC-injected rats. All enzyme reactions were initiated with the addition of the substrate solution to the sPLA2 containing samples. Kinetic parameters including the properties of lysoPC inhibitors were determined by recording the initial maximum velocities (Vo) of enzyme reactions, obtained within 2 minutes of initiation. A detailed presentation of the calculations used in our kinetic analysis has been presented. Relative fluorescent units (RFU) were converted to product concentration using a standard curve made with pyrenyldecanoic acid (Invitrogen, Eugene, OR). Individual reactions were carried out in duplicate or triplicate and kinetic curves were produced using at least 6 substrate concentrations, with lysoPC or its vehicle (PBS with 8% ethanol). Representative Lineweaver-Burk and Michaelis-Menten plots as well as nonlinear regression analyses are presented in Results. Experiments were repeated at least 4 times with similar results. […] These calculations, and Km, Vmax and R^2 were made with statistical (INSTAT) and regression software (Prism), both from Graphpad (San Diego, CA).

Assay [1] concerns plasma sPLA2. The experiment in a line: plasma sPLA2 activity of rats after subcutaneous lysoPC injection. The assay is classed as in vivo. As to conditions: rat, subcutaneous 25 mg/kg, 2 hrs after injection; PDA generated in 1 hr. The method, then: Enzyme assays were conducted as in previous studies using a Victor 3 fluorescent reader (Perkin Elmer, Waltham, MA). The substrate was 1-palmitoyl-2-pyrenedecanoyl phosphatidylcholine ("10-pyrene"), Caymen Chemical, Ann Arbor MI) a substrate for all calcium dependent PLA2s with the exception of cPLA2 and PAF-AH (LP-PLA2). Substrate solutions were prepared in reaction buffer consisting of 50 mM tris (pH = 7.4), 0.1 M NaCl, 2 mM CaCl2, 0.25% fatty acid-free albumin. The substrate forms phospholipids vesicles in this solution [37], and upon hydrolysis, releases fluorescent 10-pyrenyldecanoic acid (PDA). Plasma samples were 10% final and mixed with lysoPCs by gentle shaking for 100 sec, or they were derived from lysoPC-injected rats. […] Kinetic parameters including the properties of lysoPC inhibitors were determined by recording the initial maximum velocities (Vo) of enzyme reactions, obtained within 2 minutes of initiation. […]
Rats were injected subcutaneously under the loose skin at the shoulders with synthetic stearoyl (n = 4) or palmitoyl (n = 4) lysoPCs (25 mg/kg) two hrs before sacrifice and compared to vehicle-injected rats (n = 8). The relative concentrations of active sPLA2 enzymes were measured in plasma samples of these animals by determining the total hydrolysis of substrate in 1 hr.

The subject of assay [2] is plasma sPLA2. The assay can be described thus: sPLA2 enzyme activity in rat plasma ex vivo with added lysoPC (10-pyrene substrate). The assay is classed as biochemical. The following applies: for type of inhibition of plasma sPLA2 enzyme activity: kinetic studies, rat plasma ex vivo; for Ki / Km / Vmax: lysoPC 20 μM; for Ki: all reactions with substrates above 15 μM, read-out: Ki ± s.e.m.; for Km / Vmax: plasma 10% final. The procedure: as §1, §2

With `CCCCCCCCCC(=O)OC[C@@H](O)COP(=O)([O-])OCC[N+](C)(C)C` [Decanoyl, Decanoyl lysoPC, reference compound], in the assay on group IA sPLA2 (40 μM lysoPC, 30 μM substrate), the “inhibition of group IA sPLA2” value is on record as “failed to show inhibition”. In addition, in the assay with group IA sPLA2 (lysoPC 40 μM), the Km is 25 µM and the Vmax is recorded as 342.4 μM/min/ml.
For `CCCCCCCCCCCCCCCC(=O)OC[C@@H](O)COP(=O)([O-])OCC[N+](C)(C)C` [Palmitoyl, palmitoyl lysoPC], the “range of plasma sPLA2 activities compared with vehicle-injected control rats” value in the assay with plasma sPLA2 [1] was “significantly lower and narrower”. Besides, in the assay on plasma sPLA2 [2], the “type of inhibition of plasma sPLA2 enzyme activity” value is reported as “uncompetitive inhibitors”, the Ki amounted to 25.9 ± 4 µM, the Km turned out to be 16.1 µM and the Vmax was found to be 684.7 nM/min/ml. The “type of inhibition of group IA sPLA2” value in the assay with group IA sPLA2 is “Uncompetitive inhibition”.
Regarding `CCCCCCCCCCCCCCCCCC(=O)OC[C@@H](O)COP(=O)([O-])OCC[N+](C)(C)C` [Stearoyl, stearoyl lysoPC], the “range of plasma sPLA2 activities compared with vehicle-injected control rats” value in the assay with plasma sPLA2 [1] is “significantly lower and narrower”. Further, the “type of inhibition of plasma sPLA2 enzyme activity” value with plasma sPLA2 [2] is listed as “uncompetitive inhibitors”. In addition, on plasma sPLA2 [2], the Ki is 34.2 ± 17.4 µM. In addition, the Km with plasma sPLA2 [2] came out at 11.3 µM; in the assay on group IA sPLA2 (lysoPC 10 μM) it was 9.37 µM; in the assay with group IA sPLA2 (lysoPC 20 μM), 5.92 µM; in the assay with group IA sPLA2 (lysoPC 40 μM), 7.31 µM. Moreover, the Vmax in the assay on plasma sPLA2 [2] was 669.2 nM/min/ml; in the assay with group IA sPLA2 (lysoPC 10 μM), 221.9 μM/min/ml; with group IA sPLA2 (lysoPC 20 μM) it was 156.2 μM/min/ml; in the assay on group IA sPLA2 (lysoPC 40 μM), 92.15 μM/min/ml. Also, the “percent inhibition (percent reduction in Vo)” value is recorded as 29.3 ± 1.6% with group IA sPLA2 (40 μM lysoPC preincubated with 5% albumin (> 600 μM), n = 4) and 63 ± 6% in the assay on group IA sPLA2 (40 μM lysoPC, standard buffer (0.25% albumin), n = 8). Moreover, the “type of inhibition of group IA sPLA2” value in the assay with group IA sPLA2 is recorded as “Uncompetitive inhibition”.
